Literature values in publication PMC4801399, “Impact of a CXCL12/CXCR4 Antagonist in Bleomycin (BLM) Induced Pulmonary Fibrosis and Carbon Tetrachloride (CCl4) Induced Hepatic Fibrosis in Mice” (PLoS ONE, 2016).

Columns and labels:
liver fibrosis = conditions: cited from earlier work
BLM induced PF = conditions: cited from earlier work

c1cc(CN2CCCNCCNCCCNCC2)ccc1CN1CCCNCCNCCCNCC1 [AMD3100]
liver fibrosis (liver fibrosis): increased | transcript levels of Acta2 and Col1a1 (liver fibrosis): increased | number of fibrocytes in the lung (BLM induced PF; 3 and 7 days post BLM treatment): decreased | mortality associated with BLM induced PF (BLM induced PF): alleviate | lung fibrosis and fibrocyte infiltration into the lung (BLM induced PF; murine model of BLM induced PF): reduce
